Laboratory results as given in patent publication EP0435222A2, “Aminopyridinylmethanols and aminomethylpyridinamines and related compounds, a process for their preparation and their use as medicaments” (HOECHST-ROUSSEL PHARMACEUTICALS INCORPORATED, priority 1989, dated 1991).
Counter-ions that a name gives are not always drawn. Like-named read-outs stand apart in the source and are kept apart here.

How the values were obtained:
[1] = tested on: Scopolamine Induced Memory Deficit; assay: Dark Avoidance Assay (reversal of scopolamine-induced memory deficit); format: in vivo, mice; settings: for responders at 0.3 mg/kg: Dose 0.30 mg/kg of body weight; for responders at 0.16 mg/kg: Dose 0.16 mg/kg of body weight
Method: In this assay mice are tested for their ability to remember an unpleasant stimulus for a period of 24 hours. A mouse is placed in a chamber that contains a dark compartment: a strong incandescent light drives it to the dark compartment, where an electric shock is administered through metal plates on the floor. The animal is removed from the testing apparatus and tested again, 24 hours later, for the ability to remember the electric shock. If scopolamine, an anticholinergic that is known to cause memory impairment, is administered before an animal's initial exposure to the test chamber, the animal re-enters the dark compartment shortly after being placed in the test chamber 24 hours later. This effect of scopolamine is blocked by an active test compound, resulting in a greater interval before re-entry into the dark compartment. The results for an active compound are expressed as the percent of a group of animals in which the effect of scopolamine is blocked, as manifested by an increased interval between being placed in the test chamber and re-entering the dark compartment.

[2] = tested on: 2-phenyl-1,4-benzoquinone-induced writhing; assay: Inhibition of Phenylquinone-Induced Writhing in Mice (PQW); format: in vivo, male CD-1 Charles River mice
Method: A 0.125% concentration of phenyl-p-benzoquinone in a 5% aqueous solution of ethyl alcohol is administered to mice (10 mL/kg, ip). This produces a characteristic "writhe" which is defined as an inward rotation of one or more feet with twisting and turning of the trunk, drawing in of the abdominal wall, lordosis, and arching of the back. A total of 28 male CD-1 Charles River mice (18-30 g) are employed for a time-response. Animals receive food and water ad libitum during their stay in the animal quarters prior to testing. Compounds are tested at 20 mg/kg, sc and are prepared with distilled water, and if insoluble one drop of Tween-80, a surfactant is added. Compounds are administered in a dosage volume of 10 mL/kg.
Twenty mice (five per group) are administered the test compound at various pretreat time (e.g., 15,30,45, and 60 min) prior to phenylquinone injection. Control animals (two per group) receive an equal volume of vehicle. After the administration of phenylquinone, the mice are placed separately into 1-L beakers, and 5 min are allowed to elapse. The mice are then observed for a period of 10 min, and the number of writhes is recorded for each animal. The formula for computing percent inhibition is [drawing 20]
The time period with the maximum percent of inhibition is considered the peak time.

[3] = tested on: naja naja (snake venom) phospholipase A₂-induced paw edema; assay: Phospholipase A₂-induced Paw Edema (PIPE); format: in vivo, male Wistar rats; settings: for PIPE* (0.1 M): difference in edema vs. control, 0.1 M test compound injected with PLA₂ (3 units/paw), subplantar, rat hindpaw, two hours post administration
Method: The ability of compounds to prevent naja naja (snake venom) phospholipase A₂-induced paw edema in male Wistar rats (100-125 g) was measured. PLA₂ (3 units/paw) alone or with 0.1 M of the test compound was injected in the subplantar region of the rat left hindpaw. Immediately subsequent to the injection and at two hours post administration the paw was immersed in a mercury bath, and paw displacement was measured on a recorder via a transducer (Standard: hydrocortisone ED₅₀=0.46 M). See Giessler, A.J. et al., Agents and Actions, Vol. 10, Trends in Inflammation Research (1981), p. 195.

porcine pancreatic PLA₂ = target: T1, porcine pancreatic PLA₂ (Sus scrofa, UniProt P00592); assay: In Vitro Phospholipase A₂ Assay (PLA₂); format: biochemical
T1 construct: porcine pancreatic PLA₂ (3.2 units); from tissue; host or cells: porcine pancreas
Method: The ability of a compound to modulate PLA₂ activity (cleavage of ¹⁴C-dipalmitoyl phosphotidylcholine at the 2-position to ¹⁴C-palmitic acid) was quantitated in this assay. The reaction mixture contained Tris buffer (25mM), pH 8.0, calcium chloride (2.0 mM), bovine serum albumin (0.5 mg), dipalmitoyl phosphotidylcholine (8x10⁻⁵M), (¹⁴C-palmitoyl)dipalmitoyl phosphotidylcholine (6x10³ cpm), porcine pancreatic PLA₂ (3.2 units) and the test compound. The reaction was run at 37°C in a shaking incubator. The reaction was quenched and an internal standard was added in order to determine sample recovery. […] See Feyen, J.H.M., et al., Journal of Chromatography 259 (1983), pp. 338-340.

[4] = tested on: ear edema induced by topical application of TPA (phorbol 12-myristate acetate); assay: TPA-Induced Ear Edema (TPAEE); format: in vivo, Female Swiss Webster mice; settings: for TPAEE (10 µg): 10 µg/ear topical, TPA 10µg/ear, ear punch weight after five hours
Method: The purpose of this assay was to determine the ability of a topically-applied compound to prevent ear edema induced by topical application of TPA (phorbol 12-myristate acetate). Female Swiss Webster mice topically received TPA (10µg/ear) on the right ear and vehicle on the left ear. The test compound (10 µg/ear) was applied to both ears. After five hours, the animals were sacrificed and an ear punch (4 mm) was taken from each ear. The difference in right and left ear punch weights for each animal was determined to assess activity (Standard: hydrocortisone ED₅₀=47 µg/ear). See Young, J.M. et al., J. Invest. Dermatol., 80 (1983), pp. 48-52.

[5] = tested on: mouse ear edema induced by topical application of arachidonic acid; assay: Arachidonic Acid-Induced Ear Edema (AAEE); format: in vivo, Female Swiss Webster mice
Method: The purpose of this assay was to determine the ability of a topically-applied compound to prevent mouse ear edema induced by topical application of arachidonic acid. Female Swiss Webster mice topically received vehicle or test compound (1.0 mg/ear) on both ears (10µl on outer and inner ears). After 30 minutes, the right ear of all groups received arachidonic acid (4 mg/ear) and the left ear received vehicle alone. After an additional 1 hour, the mice were sacrificed and an ear punch (4 mm) was taken from each ear. The difference in right and left ear punch weights for each animal was determined to assess activity (Standard: indomethacin ED₅₀ = 1.5 mg/ear). See Young, J.M. et al., J. Invest. Dermatol., 80, (1983), pp 48-52.

[6] = Mus musculus, sc, 24 h, s.c, read-out: % of Animals with Scopolamine Induced Memory Deficit Reversal
[7] = 0.01 M test compound, porcine pancreatic PLA₂, 37°C, pH 8.0, change vs. control, read-out: PLA2* (0.01 M)

T1 sequence (P00592 23-146): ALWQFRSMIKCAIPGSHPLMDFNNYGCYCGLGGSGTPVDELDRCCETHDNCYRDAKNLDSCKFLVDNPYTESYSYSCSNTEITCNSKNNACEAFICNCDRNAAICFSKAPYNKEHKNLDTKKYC

SMILES: CCCCNCc1cnccc1N.Cl.Cl [3-(Butylamino)methyl-4-pyridinamine dihydrochloride]
- responders at 0.3 mg/kg [1, 6]: 27%
- PQW (% inhibition of writhing) ([2]; Dose 20 mg/kg, s.c.): 62%

SMILES: Cl.Cl.Nc1ccncc1CNCc1ccccc1 [3-[(Phenylmethylamino)methyl]-4-pyridinamine dihydrochloride]
- PIPE* (0.1 M) [3]: -51%
- inhibition at 10000 µM (porcine pancreatic PLA₂; pH 8, read-out: PLA2* (0.01 M)): 79%
- PQW (% inhibition of writhing) ([2]; Dose 20 mg/kg, s.c.): 40%

SMILES: CC(NCc1ccccc1)c1cnccc1N (stereo not drawn) [4-Amino-α-methyl-N-(phenylmethyl)-3-pyridinemethanamine]
- PIPE* (0.1 M) [3]: -44%

SMILES: Nc1ccncc1C(=NO)c1ccccc1F [(4-Amino-3-pyridinyl)-(2-fluorophenyl)-methanone oxime]
- inhibition at 10000 µM (porcine pancreatic PLA₂; [7]): 32%
- TPAEE (10 µg) [4]: -56%

SMILES: Nc1ccncc1C(N)c1ccccc1 (stereo not drawn) [(4-Amino-3-pyridinyl)benzenemethanamine dihydrochloride]
- PIPE* (0.1 M) [3]: -66%
- responders at 0.3 mg/kg [1, 6]: 27%

SMILES: Cl.Cl.Nc1ccncc1C(N)C1CCCCC1 (stereo not drawn) [(4-Amino-3-pyridinyl)cyclohexylmethanamine dihydrochloride]
- PIPE* (0.1 M) [3]: -68%
- inhibition at 10000 µM (porcine pancreatic PLA₂; pH 8, read-out: PLA2* (0.01 M)): 72%

SMILES: Cl.Nc1ccncc1C(=O)C1CCCCC1 [(4-Amino-3-pyridinyl)cyclohexylmethanone hydrochloride]
- inhibition at 10000 µM (porcine pancreatic PLA₂; pH 8, read-out: PLA2* (0.01 M)): 82%
- TPAEE (10 µg) [4]: -53%

SMILES: Nc1ccncc1C(=NO)C1CCCCC1 [(4-Amino-3-pyridinyl)cyclohexylmethanone oxime hydrochloride]
- inhibition at 10000 µM (porcine pancreatic PLA₂; pH 8, read-out: PLA2* (0.01 M)): 99%

SMILES: CC(NCc1ccccc1)c1cnccc1NC(=O)C(C)(C)C (stereo not drawn) [N-[3-[1-(Phenylmethylamino)ethyl]-4-pyridinyl]-2,2-dimethylpropanamide dihydrochloride]
- inhibition at 10000 µM (porcine pancreatic PLA₂; pH 8, read-out: PLA2* (0.01 M)): 74%

SMILES: CNC(=O)Oc1ccc2c(c1)[C@]1(C)CCN(C)[C@@H]1N2C [Physostigmine, reference compound]
- % of Animals with Scopolamine Induced Memory Deficit Reversal ([1]; mouse, in vivo, 0.31 mg/kg): 20%

SMILES: CCC(=O)O[C@](Cc1ccccc1)(c1ccccc1)[C@H](C)CN(C)C [Propoxyphene, reference compound]
- PQW (% inhibition of writhing) ([2]; Dose 3.9 mg/kg, s.c. (reference compound)): 50%

SMILES: C[C@]12CCC(=O)C=C1CC[C@@H]1[C@@H]2[C@@H](O)C[C@@]2(C)[C@H]1CC[C@]2(O)C(=O)CO [hydrocortisone, reference compound]
- ED₅₀ ([3]; standard of the PIPE assay): 0.46 M
- ED₅₀ ([4]; standard of the TPAEE assay, topical): 47 µg/ear

SMILES: COc1ccc2c(c1)c(CC(=O)O)c(C)n2C(=O)c1ccc(Cl)cc1 [indomethacin, reference compound]
- ED₅₀ ([5]; standard of the AAEE assay, topical): 1.5 mg/ear

SMILES: Nc1ccncc1C(O)c1ccccc1F (stereo not drawn) [α-(2-Fluorophenyl)-4-amino-3-pyridinylmethanol hydrochloride]
- PIPE* (0.1 M) [3]: -56%
- responders at 1 mg/kg ([1]; Mus musculus, sc, 24 h, Dose 1.0 mg/kg of body weight, s.c, read-out: % of Animals with Scopolamine Induced Memory Deficit Reversal): 40%

SMILES: CC(C)(C)C(=O)Nc1ccncc1C(O)C1CCCCC1 (stereo not drawn) [α-Cyclohexyl-4-(2,2-dimethylpropionamido)-3-pyridinylmethanol]
- AAEE (1 mg) ([5]; 1.0 mg/ear topical, 30 minutes before arachidonic acid (4 mg/ear), ear punch weight after 1 hour): -52%
- TPAEE (10 µg) [4]: -55%
- responders at 0.16 mg/kg [1, 6]: 33%

SMILES: Nc1ccncc1C(O)C1CCCCC1 (stereo not drawn) [α-Cyclohexyl-4-amino-3-pyridinylmethanol hydrochloride]
- responders at 0.16 mg/kg [1, 6]: 50%

SMILES: CC(O)c1cnccc1NC(=O)C(C)(C)C (stereo not drawn) [α-Methyl-4-(2,2-dimethylpropionamido)-3-pyridinylmethanol]
- PQW (% inhibition of writhing) ([2]; Dose 20 mg/kg, s.c.): 89%

SMILES: CC(O)c1cnccc1N (stereo not drawn) [α-Methyl-4-amino-3-pyridinylmethanol hydrochloride]
- responders at 1.25 mg/kg ([1]; Mus musculus, sc, 24 h, Dose 1.25 mg/kg of body weight, s.c, read-out: % of Animals with Scopolamine Induced Memory Deficit Reversal): 33%

SMILES: CC(C)(C)C(=O)Nc1ccncc1C(O)c1ccccc1 (stereo not drawn) [α.Phenyl-4-(2,2-dimethylpropionamido)-3-pyridinylmethanol]
- responders at 0.31 mg/kg ([1]; Mus musculus, sc, 24 h, Dose 0.31 mg/kg of body weight, s.c, read-out: % of Animals with Scopolamine Induced Memory Deficit Reversal): 40%
- PQW (% inhibition of writhing) ([2]; Dose 20 mg/kg, s.c.): 38%

SMILES: Nc1ccncc1C(O)c1ccccc1 (stereo not drawn) [α.Phenyl-4-amino-3-pyridinylmethanol hydrochloride]
- inhibition at 10000 µM (porcine pancreatic PLA₂; [7]): 87%
- responders at 0.63 mg/kg ([1]; Mus musculus, sc, 24 h, Dose 0.63 mg/kg of body weight, s.c, read-out: % of Animals with Scopolamine Induced Memory Deficit Reversal): 27%
